Measurements from EP4692091A1, “CA[…], AND PHARMACEUTICAL COMPOSITION, PREPARATION METHOD THEREFOR AND USE THEREOF” (Changchun Genescience Pharmaceutical Co., Ltd., priority 2023, dated 2024).

What was measured:
Format in all cases: cell-based
[1] = tested on: SK-BR-3; assay: Inhibition of proliferation of SK-BR-3 cells by compounds (CellTiter-Glo, 72 h); conditions: SK-BR-3, 72 h incubation
Experimental: 3: Test method (1) Cell plating: first, tumor cells SK-BR-3 were cultured using a corresponding culture medium, trypsinized, centrifuged, resuspended for counting, adjusted to an appropriate concentration, and then plated on a 384-well plate. (2) Co-incubation of the compounds and tumor cells: after the cells adhered to the wall, 100 nL of a diluted bioactive substance (test compound) was added to the cell culture plate using ECHO, the final concentration of DMSO in wells of the cell plate was 0.33%, and the incubation was performed in an incubator at 37°C with 5% CO2 for 72 h. (3) After the incubation was complete, 30 µL of a CTG reagent (CelltiterGlo kit) was added to each well. The culture was oscillated on a fast oscillator for 2 min, centrifuged at 1,000 rpm for 1 min, and kept away from light at room temperature for 30 min. The chemiluminescence signal value was read using an Envision instrument. (4) Cell viability detection: IC50 was calculated using GraphPad Prism 8 software, and the IC50 of the compounds was obtained using the following nonlinear fitting formula (see Table 1) : 1. Y=Bottom+(Top-Bottom)/(1+10^((LogIC50-X)*HillSlope)) 2. […] Table 1 Antiproliferative activity of test compounds on SK-BR-3

[2] = tested on: MDA-MB-468; assay: Inhibition of proliferation of MDA-MB-468 cells by test compounds (CellTiter-Glo, 72 h); conditions: MDA-MB-468, 72 h incubation
Experimental: 3: Test method • (1) Cell plating: first, tumor cells MDA-MB-468 were cultured using a corresponding culture medium, trypsinized, centrifuged, resuspended for counting, adjusted to an appropriate concentration, and then plated on a 384-well plate. • (2) Co-incubation of the compounds and tumor cells: after the cells adhered to the wall, 100 nL of a diluted bioactive substance (test compound) was added to the cell culture plate using ECHO, the final concentration of DMSO in wells of the cell plate was 0.33%, and the incubation was performed in an incubator at 37°C with […] for 72 h. • (3) After the incubation was complete, 30 µL of a CTG reagent (CelltiterGlo kit) was added to each well. The culture was oscillated on a fast oscillator for 2 min, centrifuged at 1,000 rpm for 1 min, and kept away from light at room temperature for 30 min. The chemiluminescence signal value was read using an Envision instrument. • (4) Cell viability detection: IC50 was calculated using GraphPad Prism 8 software, and the IC50 of the compounds was obtained using the following nonlinear fitting formula (see Table 2): • 6. Y=Bottom+(Top-Bottom)/(1+10^((LogIC50-X)*HillSlope)) • 7. […] Table 2 Antiproliferative activity of test compounds on MDA-MB-468

[3] = tested on: NCI-N87; assay: Inhibition of proliferation of NCI-N87 cells by test compounds (CellTiter-Glo, 72 h); conditions: NCI-N87, 72 h incubation
Experimental: 3: Test method (1) Cell plating: first, tumor cells NCI-N87 were cultured using a corresponding culture medium, trypsinized, centrifuged, resuspended for counting, adjusted to an appropriate concentration, and then plated on a 384-well plate. (2) Co-incubation of the compounds and tumor cells: after the cells adhered to the wall, 100 nL of a diluted bioactive substance (test compound) was added to the cell culture plate using ECHO, the final concentration of DMSO in wells of the cell plate was 0.33%, and the incubation was performed in an incubator at 37°C with […] for 72 h. (3) After the incubation was complete, 30 µL of a CTG reagent (CelltiterGlo kit) was added to each well. The culture was oscillated on a fast oscillator for 2 min, centrifuged at 1,000 rpm for 1 min, and kept away from light at room temperature for 30 min. The chemiluminescence signal value was read using an Envision instrument. (4) Cell viability detection: IC50 was calculated using GraphPad Prism 8 software, and the IC50 of the compounds was obtained using the following nonlinear fitting formula (see Table 3) : 11. Y=Bottom+(Top-Bottom)/(1+10^((LogIC50-X)*HillSlope)) 12. […] Table 3 Antiproliferative activity of test compounds on cells NCI-N87

Compound	IC50 [1] [nM]	IC50 [2] [nM]	IC50 [3] [nM]	IC50 ([3]; Homo sapiens, NCI-N87, 72 h) [nM]
CC[C@@]1(O)C(=O)OCc2c1cc1n(c2=O)Cc2c-1nc1cc(F)c(C3CC3)c3c1c2C(NC(=O)[C@H]1C[C@@H](O)C1)CCC3 (single isomer, unassigned) [20-2]	25	19.5	28	–
CC[C@@]1(O)C(=O)OCc2c1cc1n(c2=O)Cc2c-1nc1cc(F)c(Br)c3c1c2C(NC(=O)C[C@@H](C)O)CC3 (stereo partly drawn) [3-1, (R)-N-((1S,9S)-4-bromo-9-ethyl-5-fluoro-9-hydroxy-10,13-dioxo-2,3,9,10,13,15-hexahydro-1H,12H-benzo[de]pyrano[3',4',6,7]indolizino[1,2-b]quinolin-1-yl)-3-hydroxybutanamide]	13	7.5	16	–
CC[C@H](O)CC(=O)N[C@H]1CCCc2c(C)c(F)cc3nc4c(c1c23)Cn1c-4cc2c(c1=O)COC(=O)[C@]2(O)CC [36-2, (S)-N-((1S,10S)-10-ethyl-6-fluoro-10-hydroxy-5-methyl-11,14-dioxo-1,2,3,4,10,11,14,16-octahydro-13H-cyclohepta[3',4':6,7]indolizino[1,2-b]quinolin-1-yl)-3-hydroxypentanamide]	4.4	6.4	3.9	–
CC[C@@]1(O)C(=O)OCc2c1cc1n(c2=O)Cc2c-1nc1cc(F)c(Br)c3c1c2C(NC(=O)C[C@@H](C)O)CC3 (stereo partly drawn) [3-2, (R)-N-((1R,9S)-4-bromo-9-ethyl-5-fluoro-9-hydroxy-10,13-dioxo-2,3,9,10,13,15-hexahydro-1H,12H-benzo[de]pyrano[3',4',6,7]indolizino[1,2-b]quinolin-1-yl)-3-hydroxybutanamide]	15	12	16	–
CC[C@@]1(O)C(=O)OCc2c1cc1n(c2=O)Cc2c-1nc1cc(F)c(C3CC3)c3c1c2C(NC(=O)[C@H]1C[C@@H](O)C1)CC3 (stereo partly drawn) [18-1, (1S,3S)-N-((1R,9S)-4-cyclopropyl-9-ethyl-5-fluoro-9-hydroxy-10,13-dioxo-2,3,9,10,13,15-hexahydro-1H,12H-benzo[d]pyrano[3',4':6,7]indolizino[1,2-b]quinolin-1-yl)-3-hydroxycyclobutane-1-carboxamide]	–	12	–	–
CC[C@@]1(O)C(=O)OCc2c1cc1n(c2=O)Cc2c-1nc1cc(F)c(OCC(F)(F)F)c3c1c2C(NC(=O)C[C@@H](C)O)CC3 (stereo partly drawn) [8-2, (R)-N-((1R,9S)-9-ethyl-5-fluoro-9-hydroxy-10,13-dioxo-4-(2,2,2-trifluoroethoxy)-2,3,9,10,13,15-hexahydro-1H,12H-benzo[de]pyrano[3',4',6,7]indolizino[1,2-b]quinolin-1-yl)-3-hydroxybutanamide]	87	38	–	–
CC[C@@]1(O)C(=O)OCc2c1cc1n(c2=O)Cc2c-1nc1cc(F)cc3c1c2C(NC(=O)C[C@@H](C)O)CC3 (stereo partly drawn) [4-1, (R)-N-((1S,9S)-9-ethyl-5-fluoro-9-hydroxy-10,13-dioxo-2,3,9,10,13,15-hexahydro-1H,12H-benzo[de]pyrano[3',4',6,7]indolizino[1,2-b]quinolin-1-yl)-3-hydroxybutanamide]	61	34	–	–
(R)-3-cyclopropyl-N-((1S,9S)-4-cyclopropyl-9-ethyl-5-fluoro-9-hydroxy-10,13-dioxo-2,3,9,10,13,15-hexahydro-1H,12H-benzo[d]pyrano[3',4':6,7]indolizino[1,2-b]quinolin-1-yl)-3-hydroxypropanamide [34-2]	–	4	6	–
C=Cc1c(F)cc2nc3c(c4c2c1CCC4NC(=O)C[C@@H](C)O)Cn1c-3cc2c(c1=O)COC(=O)[C@]2(O)CC (stereo partly drawn) [7-1, (R)-N-((1S,9S)-9-ethyl-5-fluoro-9-hydroxy-10,13-dioxo-4-vinyl-2,3,9,10,13,15-hexahydro-1H,12H-benzo[de]pyrano[3',4',6,7]indolizino[1,2-b]quinolin-1-yl)-3-hydroxybutanamide]	8.6	3.1	–	–
CC[C@@]1(O)C(=O)OCc2c1cc1n(c2=O)Cc2c-1nc1ccc(O)c3c1c2CCC3 [compound 9, (S)-9-ethyl-4,9-dihydroxy-1,2,3,9,12,15-hexahydro-10H,13H-benzopyrano[3',4',6,7]indolizino[1,2-b]quinoline-10,13-dione]	–	–	–	3
